Assay results from paper PMC13408522, “The Effect of Glycosylation on Biodistribution and Cytotoxicity of ^99mTc-Radiolabeled Luteolin” (Advanced Pharmaceutical Bulletin, 2025).
“Also recorded” adds a separate entry of the source. Like-named read-outs stand apart in the source and are kept apart here.

Tests used:
HUVEC cells = assay: MTT cell viability assay, HUVEC normal cells; type: cell-based; conditions: 5-200 µg/mL, 24 h
Procedure: (§1) According to the biodistribution results of Lu and LuG in the previous step, three cell lines were selected for further analysis. HUVEC cell line (an endothelial cell that was isolated from the umbilical cord vein) as a normal cell, SW480 as a colorectal cancer cell line, and HepG2 as a hepatocellular carcinoma cell line were obtained from the cell bank of Roshd Azma Company. They were cultured in Dulbecco’s Modified Eagle Medium (DMEM) supplemented with FBS 10% (Fetal Bovine Serum) and Pen/Sterp 10^4 U/mL (Penicillin- Streptomycin) at 37°C and 5% carbon dioxide (CO2). Then, 10^5 cells/mL were seeded in 96-well cell culture plates and incubated for 24 h.
(§2) After 24 h, the cell lines were treated with Lu and LuG (5, 10, 25, 50, 75, 100, 200 µg/mL). The cytotoxicity effect of Lu and LuG was measured using the MTT (3-[4,5-dimethylthiazol-2-yl]- 2,5-diphenyltetrazolium bromide) assay for 24 h. Next, 20 μL of MTT solution (5 mg/mL) was added to each well, and the complexes were incubated at 37°C for 4 hours. Afterward, the culture medium was removed and replaced with DMSO 200 μL). The absorbance of each well was determined at 570 nm using an ELISA reader, and the cell viability percentage was calculated relative to the control group.

HepG2 cells [1] = conditions: cited from earlier work
SW480 cells = assay: MTT cell viability assay, SW480; type: cell-based; conditions: 5-200 µg/mL, 24 h
Procedure: as §1, §2

HepG2 cells [2] = assay: MTT cell viability assay, HepG2; type: cell-based; conditions: 5-200 µg/mL, 24 h (LuG also 48 and 72 h)
Procedure: as §1, §2

HepG2 cells [3] = assay: Annexin V-FITC/PI flow cytometry for apoptosis/necrosis; type: cell-based; conditions: HepG2, 5, 30, 50 µg/mL
Procedure: According to the results of the previous steps, LuG was selected for flow cytometry testing on the HepG2 cancer cell line. […] HepG2 cells were treated with LuG (5, 30, 50 µg/mL) for 48 h and then washed with PBS. Next, 300 µL of binding buffer was added to 1 × 10^6 cells and incubated for 15 min at 25°C in away from the light with 4 µL of FITC Annexin V and 2 µL of PI. To investigate apoptotic or necrotic pathways, data were analyzed by FlowJo software. […] Additionally, cells without any treatment (negative control) and those treated with LuG (positive control) were designated as “Auto” and “Unstained”, respectively.

HepG2 cells [4] = system: HepG2 cells; parameters: method as in PMID 24257119; conditions: 24 h treatment; cited from earlier work
[5] = Biodistribution of 99mTc-radiolabeled flavonoids, organ radioactivity after SPECT imaging; parameters: species or system Wistar-Albino rats; conditions: rat, in vivo
Procedure: Five milligrams of tin chloride (SnCl2) was dissolved in 1 mL of hydrochloric acid 10% and diluted with 3 mL of distilled water, and the pH was adjusted to 7. Then, 1 mg of Lu and LuG and about 4 mCi of fresh pertechnetate (^99mTcO4) in 2 mL of NaCl were added to the complex. Afterward, it was incubated at room temperature for 20 minutes.
An intraperitoneal injection of a ketamine and xylazine mixture anesthetized the Wistar-Albino rats. About 1.4 mCi of flavonoid-^99mTc complex (^99mTc-Lu and ^99mTc-LuG) was injected through the tail vein. The imaging was performed using SPECT (Single-Photon Emission Computed Tomography) at 0, 5, 15, 30, 60, and 90 min. Then, the animals were sacrificed in accordance with all ethical considerations, and each organ was carefully separated. The percentage of radioactivity in each organ was calculated by dividing the activity counted by the dose calibrator by the total radioactivity. This method ensured accurate assessment of the biodistribution of the radiolabeled compounds within the various organs.
Organ accumulation of ^99mTc−Lu/^99mTc−LuG (%)=(Amount of radioactivity counted in each organ/Amount of radioactivity counted in whole body)×100

HepG2 cells [6] = system: HepG2 cells; parameters: method as in PMID 32129972; conditions: cited from earlier work
HepG2 cells [7] = assay: Cell cycle analysis by PI flow cytometry; type: cell-based
Procedure: HepG2 cells were seeded in 6-well plates and treated with various concentrations of Luteolin-7-O-glucoside for 24 h. After treatment, the cells were fixed in a solution of ethanol: water (7:3) at -20 °C. Then, ethanol-fixed cells were washed with PBS and incubated with RNase A (100 μL) for 30 min. Following the RNase treatment, the cells were incubated in a PI/Triton X-100 solution for an additional 30 minutes. The samples were analyzed using a flow cytometer (FACSCalibur), and the data were assessed with FlowJo version 10. Finally, the G0/G1 phase (2N DNA content), S phase (intermediate DNA content), and G2/M phase (4N DNA content) were calculated.[13]

[8] = listed as luteolin-7-O-glucoside

SMILES: O=c1cc(-c2ccc(O)c(O)c2)oc2cc(O)cc(O)c12 [Lu, 3′,4′,5,7-tetrahydroxy flavone]
- cytotoxicity on normal HUVEC cells (in words) (HUVEC cells): did not demonstrate any cytotoxicity
- apoptosis in HepG2 cells (HepG2 cells [1]; luteolin: ref 32): triggers classical mitochondrial apoptosis
- cytotoxicity on SW480 cells (in words) (SW480 cells): no inhibitory effects
- cytotoxicity on HepG2 cells (in words) (HepG2 cells [2]): less accumulation and cytotoxicity
- cytotoxicity on HepG2 cells (in words) (HepG2 cells [2]; listed as luteolin): less effective against HepG2 cells compared to the glycone form

SMILES: O=c1cc(-c2ccc(O)c(O)c2)oc2cc(O[C@@H]3O[C@H](CO)[C@@H](O)[C@H](O)[C@H]3O)cc(O)c12 [LuG, luteolin-7-O-glucoside]
- apoptosis/necrosis of HepG2 cells (in words) (HepG2 cells [3]): non-apoptotic cell death; also recorded: no significant increase
- apoptosis/necrosis of HepG2 cells (in words) (HepG2 cells [3]; [8]): did not involve necrotic or apoptotic pathways
- cytotoxicity on normal HUVEC cells (in words) (HUVEC cells): negligible toxicity; also recorded: did not demonstrate any cytotoxicity
- apoptosis in HepG2 cells (HepG2 cells [1]; LuG: ref 31): induced apoptotic features
- cytotoxicity on SW480 cells (in words) (SW480 cells): negligible toxicity; also recorded: no inhibitory effects
- cell cycle effect in HepG2 (HepG2 cells [4]): induced G2/M phase
- cytotoxicity on HepG2 cells (in words) (HepG2 cells [2]): significant cytotoxicity
- cytotoxicity on HepG2 cells (in words) (HepG2 cells [2]; [8]): highest cytotoxic effect; also recorded: effectively inhibits HepG2 cell viability
- elimination phase of the radiolabeled compound (in words) [5]: more rapidly than that of its aglycone form
- effect on viability of HepG2 cell line (HepG2 cells [6]): dose-dependent effect
- effect on cell cycle progression (in words) (HepG2 cells [7]; HepG2): impaired G1 to S progression
- change in S phase versus control (HepG2 cells [7]; HepG2, 24 h): no significant changes
- decrease of 4N DNA content (G2/M phase) versus control (HepG2 cells [7]; HepG2, 24 h): about 7%
- increase of 2N DNA content (G0/G1 phase) versus control (HepG2 cells [7]; HepG2, 24 h): approximately 5%
